Converted amounts (≈) assume the structure as drawn.
How the values were obtained:
Escherichia coli DC 2 = test: Antibacterial activity, MIC by Agar dilution method, standard test strain 9; format: cell-based; conditions: Escherichia coli, DC2, 18 h
Method: (§1) The antibacterial activity was determined by an Agar dilution method as described below.
(§2) That is, the two-fold serial dilutions of the antibacterial compounds (1000 μg compound/ml) were prepared and dispersed in Muller Hinton Agar in a petri dish to a concentration of 100~0.002 μg/ml. The culture broths of standard test strains were inoculated on the medium to a concentration 10^7 CFU/ml, and incubated at 37° C. for 18 hours. The concentration of compounds(I) at which the strains were not grown was regarded as minimum inhibition concentration (MIC).
(§3) The results of antibacterial activity test of the representative examples of the compound (I) against 20 standard test strains shown in terms of MIC were indicated in Table 1.

Escherichia coli TEM = test: Antibacterial activity, MIC by Agar dilution method, standard test strain 10; format: cell-based; conditions: Escherichia coli TEM; 10^7 CFU/ml, 37° C., 18 hours; read-out: MIC
Method: as §1, §2, §3

[1] = test system: Pseudomonas aeruginosa 1771M; test: Antibacterial activity, MIC by Agar dilution method, standard test strain 15; format: cell-based; conditions: 18 h
Method: as §1, §2, §3
15. Pseudomonas aeruginosa 1771M

Escherichia coli O 55 = test: Antibacterial activity, MIC by Agar dilution method, standard test strain 7; format: cell-based; conditions: Escherichia coli, O55, 18 h
Method: as §1, §2, §3

[2] = test system: Klebsiella aerogenes 1522E; test: Antibacterial activity, MIC by Agar dilution method, standard test strain 18; format: cell-based; conditions: Klebsiella aerogenes, 1522E, 18 h
Method: as §1, §2, §3
18. Klebsiella aerogenes 1522E

[3] = test system: Streptococcus pyogenes A 77; test: Antibacterial activity, MIC by Agar dilution method, standard test strain 2; format: cell-based; conditions: A77, 10^7 CFU/ml, 37° C., 18 hours
Method: as §1, §2, §3
2. Streptococcus pyogenes A 77

[4] = test system: Pseudomonas aeruginosa 1771; test: Antibacterial activity, MIC by Agar dilution method, standard test strain 14; format: cell-based; conditions: 10^7 CFU/ml, 37° C., 18 hours
Method: as §1, §2, §3
14. Pseudomonas aeruginosa 1771

[5] = biological target: T1, β-lactamase from Citrobacter freundii (Citrobacter freundii, UniProt P05193); test: Stability against β-lactamase, relative hydrolysis; format: biochemical; conditions: Citrobacter freundii enzyme; 100 μM; relative(percentage), Cephaloridine taken as 100; OD at 260 nm
T1 construct: directly isolated from Enterobacter cloacae P99, E. coli TEM and Citrobacter freundii; endogenous in cells
T1 sequence (P05193 21-381): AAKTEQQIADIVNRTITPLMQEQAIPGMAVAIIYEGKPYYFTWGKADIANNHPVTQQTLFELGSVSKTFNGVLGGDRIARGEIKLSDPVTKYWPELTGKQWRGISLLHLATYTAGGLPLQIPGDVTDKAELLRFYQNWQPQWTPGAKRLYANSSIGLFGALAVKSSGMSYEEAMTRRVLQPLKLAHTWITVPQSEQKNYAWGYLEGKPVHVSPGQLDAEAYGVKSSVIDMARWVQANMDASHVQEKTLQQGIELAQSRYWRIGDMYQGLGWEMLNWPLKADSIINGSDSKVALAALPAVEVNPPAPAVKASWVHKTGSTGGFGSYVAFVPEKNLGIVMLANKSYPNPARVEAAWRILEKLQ
Method: (§4) In order to establish the usefulness in clinical applications of the compounds provided by the invention, the compound of Example 18 was tested for stability against the β-lactamase and for antibacterial activity on systemic infection model.
(§5) First, the stability against the β-lactamase was tested by determining the relative(percentage) hydrolysis of the compound of Example 18, relative to that of Cephaloridine, taking the absolute rate of Cephaloridine as 100.
(§6) The β-lactamases employed in the test were directly isolated from Enterobacter cloacae P99, E. coli TEM and Citrobacter freundii, and the antibiotics for comparison were Cephaloridine, Cephradine, Cefoperazone and Cefotaxime.
(§7) Cephaloridine, other known antibiotics and the compound of Example 18 were reacted with each of the enzymes isolated from the strains and the OD were determined at 260 nm, λmax of Cephaloridine. The relative hydrolysis of various compounds were calculated relative to the OD of Cephaloridine.

[6] = biological target: T2, β-lactamase from E. coli TEM (Escherichia coli, UniProt P62593); test: Stability against β-lactamase, relative hydrolysis; format: biochemical; conditions: E. coli TEM enzyme; 100 μM; relative(percentage), Cephaloridine taken as 100; OD at 260 nm
T2 construct: directly isolated from Enterobacter cloacae P99, E. coli TEM and Citrobacter freundii; endogenous in cells; host or cells: E. coli TEM (plasmid-carried enzyme of the strain)
T2 sequence (P62593 24-286 limits assumed): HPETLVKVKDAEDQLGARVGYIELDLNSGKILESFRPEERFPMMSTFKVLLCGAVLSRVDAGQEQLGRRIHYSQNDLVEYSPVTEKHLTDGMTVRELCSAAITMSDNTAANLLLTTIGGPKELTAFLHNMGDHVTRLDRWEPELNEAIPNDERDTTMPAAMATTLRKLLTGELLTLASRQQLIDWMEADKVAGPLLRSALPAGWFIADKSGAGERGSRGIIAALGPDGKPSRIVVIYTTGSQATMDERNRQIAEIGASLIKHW
Method: as §4, §5, §6, §7

[7] = test system: Gram-positive strains, for example, Staphylococcus aureus; test: Antibacterial activity against Gram-positive strains (summary in words); format: cell-based; conditions: e.g. Staphylococcus aureus resistant to third-generation cephalosporins
Method: as §1, §2

[8] = test system: Pseudomonas aeruginosa 1592E; test: Antibacterial activity, MIC by Agar dilution method, standard test strain 13; format: cell-based; conditions: 10^7 CFU/ml, 37° C., 18 hours
Method: as §1, §2, §3
13. Pseudomonas aeruginosa 1592E

[9] = biological target: T3, β-lactamase from Enterobacter cloacae P99 (Enterobacter cloacae, UniProt P05364); test: Stability against β-lactamase, relative hydrolysis; format: biochemical; conditions: Enterobacter cloacae P99 enzyme; 100 μM; relative(percentage), Cephaloridine taken as 100; OD at 260 nm
T3 construct: directly isolated from Enterobacter cloacae P99, E. coli TEM and Citrobacter freundii; endogenous in cells; host or cells: Enterobacter cloacae P99
T3 sequence (P05364 21-381): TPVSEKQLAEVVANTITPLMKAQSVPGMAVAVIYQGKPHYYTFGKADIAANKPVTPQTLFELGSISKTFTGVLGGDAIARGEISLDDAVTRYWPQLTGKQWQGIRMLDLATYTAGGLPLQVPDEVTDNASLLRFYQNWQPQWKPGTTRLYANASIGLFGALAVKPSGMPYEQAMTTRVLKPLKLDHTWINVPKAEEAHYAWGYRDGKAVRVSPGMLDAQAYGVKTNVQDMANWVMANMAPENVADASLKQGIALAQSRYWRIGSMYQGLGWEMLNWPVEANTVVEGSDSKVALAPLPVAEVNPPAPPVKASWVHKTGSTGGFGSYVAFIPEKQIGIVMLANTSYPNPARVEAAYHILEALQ
Method: as §6
The relative hydrolysis of various compounds were calculated relative to the OD of Cephaloridine.

[10] = test system: Enterobacter cloacae 1321E; test: Antibacterial activity, MIC by Agar dilution method, standard test strain 20; format: cell-based; conditions: Enterobacter cloacae, 1321E, 18 h
Method: as §1, §2, §3
20. Enterobacter cloacae 1321E

Staphyloccus aureus 285 = test: Antibacterial activity, MIC by Agar dilution method, standard test strain 5; format: cell-based; conditions: 10^7 CFU/ml, 37° C., 18 hours
Method: as §1, §2, §3
5. Staphyloccus aureus 285

**Q.** For CON=C(C(=O)NC1C(=O)N2C(C(=O)[O-])=C(C[n+]3nn(N)c4ccccc43)CSC12)c1csc(N)n1 [Example 18, (6R,7R)-7-[(Z)-2-(2-aminothiazol-4-yl)-2-methoxyiminoacetamido]-3-[(1-aminobenzotriazol-3-ium)methyl]-ceph-3-em-4-carboxylate], which MIC (Escherichia coli DC 2) is on record?
**A.** Its MIC is 0.025 µg/mL (≈ 0.0472 µM).

**Q.** What about the MIC (Escherichia coli TEM) of the same compound?
**A.** The MIC was 0.013 µg/mL (≈ 0.0245 µM).

**Q.** What about the MIC [1] of the same compound?
**A.** Its MIC is 0.781 µg/mL (≈ 1.47 µM).

**Q.** What about the MIC (Escherichia coli O 55) of the same compound?
**A.** The MIC was 0.007 µg/mL (≈ 0.0132 µM).

**Q.** What about the MIC [2] of the same compound?
**A.** The MIC was 0.025 µg/mL (≈ 0.0472 µM).

**Q.** What about the MIC [3] of the same compound?
**A.** The MIC was 0.004 µg/mL (≈ 0.00755 µM).

**Q.** And the MIC [4]?
**A.** Its MIC is 1.56 µg/mL (≈ 2.95 µM).

**Q.** What about the “Relative hydrolysis by β-lactamase” value [5] of the same compound?
**A.** Its value is 0.2.

**Q.** And the “Relative hydrolysis by β-lactamase” value [6]?
**A.** Its value is 0.0.

**Q.** What about the “antibacterial activity (in words)” value [7] of the same compound?
**A.** The value was “strong activity”.

**Q.** And the MIC [8]?
**A.** The MIC was 1.56 µg/mL (≈ 2.95 µM).

**Q.** And the “Relative hydrolysis by β-lactamase” value [9]?
**A.** The value was 0.0.

**Q.** And the MIC [10]?
**A.** The MIC was 0.007 µg/mL (≈ 0.0132 µM).

**Q.** And the MIC (Staphyloccus aureus 285)?
**A.** Its MIC is 0.781 µg/mL (≈ 1.47 µM).

— US5336673A, “3-substituted cephem compounds” (priority 1990, dated 1994)
